# In patent publication US20140255392A1 (BAYER INTELLECTUAL PROPERTY GMBH, priority 2011, published 2014):
# Target: T1, human kinase Mps-1 (Homo sapiens, UniProt P33981)
# T1 construct: N-terminally GST-tagged human full length recombinant Mps-1 kinase; GST (N); purchased Invitrogen, Karslruhe, Germany PV4071
# T1 sequence (P33981 1-857): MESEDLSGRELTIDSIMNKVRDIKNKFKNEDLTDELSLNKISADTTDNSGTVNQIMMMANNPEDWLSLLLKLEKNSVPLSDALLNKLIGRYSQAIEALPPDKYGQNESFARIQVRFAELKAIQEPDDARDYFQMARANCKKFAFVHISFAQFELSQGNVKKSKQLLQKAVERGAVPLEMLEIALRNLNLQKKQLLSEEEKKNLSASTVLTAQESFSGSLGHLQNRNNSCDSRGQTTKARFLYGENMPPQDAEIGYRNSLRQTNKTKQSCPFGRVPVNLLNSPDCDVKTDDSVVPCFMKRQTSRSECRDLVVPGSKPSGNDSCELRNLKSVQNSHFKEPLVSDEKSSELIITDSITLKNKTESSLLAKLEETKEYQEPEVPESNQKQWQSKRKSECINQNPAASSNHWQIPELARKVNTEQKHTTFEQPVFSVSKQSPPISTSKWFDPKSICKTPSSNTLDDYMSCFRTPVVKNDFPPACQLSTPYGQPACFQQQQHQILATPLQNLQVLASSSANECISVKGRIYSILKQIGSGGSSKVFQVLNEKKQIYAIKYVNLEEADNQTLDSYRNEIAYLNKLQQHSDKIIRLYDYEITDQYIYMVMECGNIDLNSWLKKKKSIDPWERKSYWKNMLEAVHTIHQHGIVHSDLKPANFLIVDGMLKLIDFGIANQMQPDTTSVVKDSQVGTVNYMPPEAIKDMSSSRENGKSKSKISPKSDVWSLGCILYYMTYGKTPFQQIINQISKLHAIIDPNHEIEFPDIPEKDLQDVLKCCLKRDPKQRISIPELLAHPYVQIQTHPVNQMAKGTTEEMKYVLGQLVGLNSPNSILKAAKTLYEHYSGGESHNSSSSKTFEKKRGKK
# Experiment: Mps-1 kinase assay (TR-FRET)
# Type: biochemical
# Conditions: N-terminally GST-tagged human full length recombinant Mps-1; 10 μM ATP; 1 μM peptide substrate; 60 min at 22° C.
# Summary of the method: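 TR-FRET signal between a Europium anti-phospho-Ser/Thr antibody and streptavidin-XLent reported phosphorylation of a biotinylated peptide by GST-tagged full-length Mps-1. Enzyme was near 1 nM final, chosen per lot for linearity.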
row,SMILES,IC50 [nM]
1,CCc1cc(NCCC(F)(F)F)c2ncc(-c3ccc(C(=O)NC4CC4)c(C)c3)n2c1 [Example 99],13.3
2,"CCc1cc(NCCC(F)(F)F)c2ncc(-c3ccc(C(=O)NC)c(C)c3)n2c1 [Example 100, 4-{6-Ethyl-8-[(3,3,3-trifluoropropyl)amino]imidazo[1,2-a]pyridin-3-yl}-N,2-dimethylbenzamide]",106
3,"Cc1cc(-c2cnc3c(NCCC(F)(F)F)cc(Oc4ccc(OC(F)(F)F)c(F)c4)cn23)ccc1C(=O)NC1(C#N)CC1 [Example 84, N-(1-cyanocyclopropyl)-4-{6-[3-fluoro-4-(trifluoromethoxy)phencow]-8-[(3,3,3-trifluoropropyl)amino]imidazo[1,2-a]pyridin-3-yl}-2-methylbenzamide]",243
4,"Cc1cc(-c2cnc3c(NCCC(F)(F)F)cc(Oc4ccc(OC(F)(F)F)cc4)cn23)ccc1C(=O)NC1(C)CC1 [Example 66, 2-Methyl-N-(1-methylcyclopropyl)-4-{6-[4-(trifluoromethoxy)phenoxy]-8-[(3,3,3-trifluoropropyl)amino]imidazo[1,2-a]pyridin-3-yl}benzamide]",161
5,"C/C=C/c1cc(NCCC(F)(F)F)c2ncc(-c3ccc(C(=O)N[C@H]4C[C@@H]4C)c(C)c3)n2c1 (relative stereo) [Example 117, 2-Methyl-N-[rel-(1S,2S)-2-methylcyclopropyl]-4-{6-[(1E)-prop-1-en-1-yl]-8-[(3,3,3-trifluoropropyl)amino]imidazo[1,2-a]pyridin-3-yl}benzamide]",9.4
6,"CCc1cc(NCCC(F)(F)F)c2ncc(-c3ccc(C(=O)N[C@H]4C[C@@H]4C)c(C)c3)n2c1 (relative stereo) [Example 105, 4-{6-Ethyl-8-[(3,3,3-trifluoropropyl)amino]imidazo[1,2-a]pyridin-3-yl}-2-methyl-N-[rel-(1S,2S)-2-methylcyclopropyl]benzamide]",49.8
7,"CCNC(=O)c1ccc(-c2cnc3c(NCCC(F)(F)F)cc(Oc4ccc(OC(F)(F)F)c(F)c4)cn23)cc1C [Example 87, N-ethyl-4-{6-[3-fluoro-4-(trifluoromethoxy)phenoxy]-8-[(3,3,3-trifluoropropyl)amino]imidazo[1,2-a]pyridin-3-yl}-2-methylbenzamide]",70.3
8,"Cc1cc(-c2cnc3c(NCCC(F)(F)F)cc(C(C)O)cn23)ccc1C(=O)NC1CC1 (racemic) [Example 143, N-cyclopropyl-4-{6-[(1RS)-1-hydroxyethyl]-8-[(3,3,3-trifluoropropyl)amino]imidazo[1,2-a]pyridin-3-yl}-2-methylbenzamide]",33.2
9,"CNC(=O)c1ccc(-c2cnc3c(NCCC(F)(F)F)cc(-c4ccc(C(=O)OC)c(C)c4)cn23)cc1C [Example 140, Methyl 2-methyl-4-{3-[3-methyl-4-(methylcarbamoyl)phenyl]-8-[(3,3,3-trifluoropropyl)amino]imidazo[1,2-a]pyridin-6-yl}benzoate]",36.1
10,"CNC(=O)c1ccc(-c2cnc3c(NCCC(F)(F)F)cc(-c4ccccc4O)cn23)cc1C [Example 133, 4-{6-(2-Hydroxyphenyl)-8-[(3,3,3-trifluoropropyl)amino]imidazo[1,2-a]pyridin-3-yl}-N,2-dimethylbenzamide]",12.6
11,"CCNC(=O)c1ccc(-c2cnc3c(NCCC(F)(F)F)cc(-c4ccccc4O)cn23)cc1C [Example 134, N-ethyl-4-{6-(2-hydroxyphenyl)-8-[(3,3,3-trifluoropropyl)amino]imidazo[1,2-a]pyridin-3-yl}-2-methylbenzamide]",13.7
12,"CCNC(=O)c1ccc(-c2cnc3c(NCCC(F)(F)F)cc(/C=C\CO)cn23)cc1C [Example 120, N-ethyl-4-{6-[(12)-3-hydroxyprop-1-en-1-yl]-8-[(3,3,3-trifluoropropyl)amino]imidazo[1,2-a]pyridin-3-yl}-2-methylbenzamide]",42.2
13,"Cc1cc(-c2cnc3c(NCCC(F)(F)F)cc(Oc4cccc(Cl)c4)cn23)ccc1C(=O)N[C@@H]1C[C@H]1F (relative stereo) [Example 39 (rac.-A), 4-{6-(3-chlorophenoxy)-8-[(3,3,3-trifluoropropyl)amino]imidazo[1,2-a]pyridin-3-yl}-N-[rel-(1R,2R)-2-fluorocyclopropyl]-2-methylbenzamide]",3.1

# The next compounds have a lower IC50 than those just listed; values first:
row,IC50 [nM],SMILES
1,3,"Cc1cc(-c2cnc3c(NCCC(F)(F)F)cc(-c4ccc(C(=O)NC5(C)CC5)c(C)c4)cn23)ccc1C(=O)NC1CC1 [Example 149, 4-{3-[4-(cyclopropylcarbamoyl)-3-methylphenyl]-8-[(3,3,3-trifluoropropyl)amino]imidazo[1,2-a]pyridin-6-yl}-2-methyl-N-(1-methylcyclopropyl)benzamide]"
2,2.9,"Cc1cc(-c2cnc3c(NCCC(F)(F)F)cc(Oc4cccc(Cl)c4)cn23)ccc1C(=O)NC1CC1F (single isomer, unassigned) [Example 39 (A or ent.-A), 4-{6-(3-chlorophenoxy)-8-[(3,3,3-trifluoropropyl)amino]imidazo[1,2-a]pyridin-3-yl}-N-{[(1S,2S) or (1R,2R)]-2-fluorocyclopropyl}-2-methylbenzamide]"
3,2.1,"Cc1cc(-c2cnc3c(NCCC(F)(F)F)cc(Oc4cccc(F)c4)cn23)ccc1C(=O)N[C@@H]1C[C@H]1C (relative stereo) [Example 48, Rel-4-{6-(3-fluorophenoxy)-8-[(3,3,3-trifluoropropyl)amino]imidazo[1,2-a]pyridin-3-yl}-2-methyl-N-[(1R,2R)-2-methylcyclopropyl]benzamide]"
4,1.1,"CNC(=O)c1ccc(-c2cnc3c(NCCC(F)(F)F)cc(Oc4cccc(O)c4)cn23)cc1C [Example 139, 4-{6-(3-Hydroxyphenoxy)-8-[(3,3,3-trifluoropropyl)amino]imidazo[1,2-a]pyridin-3-yl}-N,2-dimethylbenzamide]"
5,0.8,Cc1cc(-c2cnc3c(NCCC(F)(F)F)cc(Sc4cccc(F)c4)cn23)ccc1C(=O)NC1CC1 [Example 3-5]
6,0.6,"CNC(=O)c1ccc(-c2cnc3c(NCCC(F)(F)F)cc(Oc4cccc(F)c4F)cn23)cc1C [Example 72, 4-{6-(2,3-Difluorophenoxy)-8-[(3,3,3-trifluoropropyl)amino]imidazo[1,2-a]pyridin-3-yl}-N,2-dimethylbenzamide]"
7,0.4,"Cc1cc(-c2cnc3c(NCCC(F)(F)F)cc(Sc4ccccc4O)cn23)ccc1C(=O)NC1CC1 [Example 3-6, N-cyclopropyl-4-{6-[(2-hydroxyphenyl)sulfanyl]-8-[(3,3,3-trifluoropropyl)amino]imidazo[1,2-a]pyridin-3-yl}-2-methylbenzamide]"
